Experimental data taken from ChEMBL document CHEMBL1152620, “Carbonic anhydrase inhibitors. Diazenylbenzenesulfonamides are potent and selective inhibitors of the tumor-associated isozymes IX and XII over the cytosolic isoforms I and II” (Bioorg Med Chem, 2009).

Assays:
Carbonic anhydrase 9 = Carbonic anhydrase 9 (Homo sapiens, UniProt Q16790); type: cell-based, Sf9
Description: Inhibition of human recombinant CA9 catalytic domain expressed in Sf9 cells by stopped flow CO2 hydration assay

Carbonic anhydrase 12 = Carbonic anhydrase 12 (Homo sapiens, UniProt O43570); experiment: Inhibition of human recombinant CA12 catalytic domain expressed in Sf9 cells by stopped flow CO2 hydration assay
[1] = Solubility in water; type: physicochemical; conditions: buffer

Carbonic anhydrase 12, sequence (O43570 whole entry, the tested form may be a part): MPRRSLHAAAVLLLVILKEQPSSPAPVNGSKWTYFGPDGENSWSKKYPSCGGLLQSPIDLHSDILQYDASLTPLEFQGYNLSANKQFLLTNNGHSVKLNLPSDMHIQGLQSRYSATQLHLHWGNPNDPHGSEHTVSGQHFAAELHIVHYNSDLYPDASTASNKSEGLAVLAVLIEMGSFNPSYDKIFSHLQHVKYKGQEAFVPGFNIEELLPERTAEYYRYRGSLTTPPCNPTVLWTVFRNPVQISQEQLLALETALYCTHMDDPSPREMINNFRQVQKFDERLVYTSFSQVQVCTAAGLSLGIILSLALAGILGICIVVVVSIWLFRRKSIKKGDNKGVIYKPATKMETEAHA

| Ki (Carbonic anhydrase 9) | Ki (Carbonic anhydrase 12) | SMILES | solubility [1] |
| --- | --- | --- | --- |
| 6.4 nM | 5 nM | NS(=O)(=O)c1ccc(/N=N/c2ccc(O)cc2)cc1 | – |
| 5.9 nM | – | Nc1ccc(/N=N/c2cccc(S(N)(=O)=O)c2)cc1 | – |
| 57 nM | – | NS(=O)(=O)c1cccc(/N=N/c2ccc(NCS(=O)(=O)O)cc2)c1 | – |
| 5850 nM | – | CN(CS(=O)(=O)O)c1ccccc1 [SODIUM(METHYL(PHENYL)AMINO)METHANESULFONATE] | – |
| 63 nM | – | CN(CS(=O)(=O)O)c1ccc(/N=N/c2cccc(S(N)(=O)=O)c2)cc1 | – |
| 5100 nM | – | O=S(=O)(O)CNc1ccccc1 [SODIUM PHENYLAMINOMETHANESULFONATE] | – |
| – | 7.9 nM | CN(C)c1ccc(/N=N/c2ccc(S(N)(=O)=O)cc2)cc1 | – |

Further lines, the molecule ahead of its results:

| SMILES | Ki (Carbonic anhydrase 9) | Ki (Carbonic anhydrase 12) | solubility [1] |
| --- | --- | --- | --- |
| CNc1ccc(/N=N/c2ccc(S(N)(=O)=O)cc2)cc1 | 4.9 nM | 69.4 nM | – |
| Nc1ccc(/N=N/c2ccc(S(N)(=O)=O)cc2)cc1 | 6 nM | – | – |
| NS(=O)(=O)c1cccc(/N=N/c2ccc(O)cc2)c1 | 6.1 nM | 7.3 nM | – |
| CN(CS(=O)(=O)[O-])c1ccc(/N=N/c2ccc(S(N)(=O)=O)cc2)cc1.[Na+] | 3.5 nM | – | Soluble |
| CN(C)c1ccc(/N=N/c2cccc(S(N)(=O)=O)c2)cc1 | 6.4 nM | – | – |
| NS(=O)(=O)c1ccc(/N=N/c2ccc(NCS(=O)(=O)[O-])cc2)cc1.[Na+] | 5.4 nM | – | Soluble |
